Assay [1] addresses T1, Histone-lysine N-methyltransferase EZH2 (Homo sapiens, UniProt Q15910). As to the kind of experiment: Inhibition of wild type EZH2 (unknown origin) by AlphaLISA assay.
Target sequence in this assay (Q15910 whole entry): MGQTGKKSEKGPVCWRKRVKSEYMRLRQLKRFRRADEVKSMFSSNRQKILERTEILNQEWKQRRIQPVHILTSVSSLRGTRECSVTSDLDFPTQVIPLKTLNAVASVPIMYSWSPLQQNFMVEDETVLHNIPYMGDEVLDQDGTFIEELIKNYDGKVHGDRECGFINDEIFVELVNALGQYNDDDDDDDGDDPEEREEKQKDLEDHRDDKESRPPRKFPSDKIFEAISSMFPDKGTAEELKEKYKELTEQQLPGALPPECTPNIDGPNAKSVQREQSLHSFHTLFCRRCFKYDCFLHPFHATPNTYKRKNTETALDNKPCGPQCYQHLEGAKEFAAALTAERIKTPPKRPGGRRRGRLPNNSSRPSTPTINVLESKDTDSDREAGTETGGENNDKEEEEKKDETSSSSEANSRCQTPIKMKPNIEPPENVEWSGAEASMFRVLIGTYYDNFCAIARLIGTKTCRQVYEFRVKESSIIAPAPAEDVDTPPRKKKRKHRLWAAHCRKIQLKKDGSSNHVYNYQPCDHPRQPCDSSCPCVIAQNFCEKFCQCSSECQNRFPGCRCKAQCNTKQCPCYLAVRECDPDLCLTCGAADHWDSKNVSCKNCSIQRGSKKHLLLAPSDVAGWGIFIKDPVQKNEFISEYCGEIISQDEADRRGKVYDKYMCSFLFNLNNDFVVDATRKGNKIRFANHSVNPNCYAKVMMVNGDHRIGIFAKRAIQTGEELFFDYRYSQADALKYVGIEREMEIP
Assay [2] in a line: Antiproliferative activity against over expressing […] human WSU-DLCL2 cells. It counts as functional. The note with it: WSUDLCL2.
In assay [3] the test system is SUD4. As to the kind of experiment: Antiproliferative activity against over expressing […] human SUDHL4 cells. It counts as functional, cell-based. The note with it: SU-DHL-4.
The subject of the next assay is MV4-11. As to the kind of experiment: Antiproliferative activity against human MV4-11 cells. Format: functional, cell-based.
For assay [4], the system named is SUD4. As to the kind of experiment: Induction of apoptosis in human SUDHL4 cells assessed as early apoptotic cells at 4 uM after 6 days by AnnexinV/propidium iodide staining based flow cytometry analysis (reference value: 0.061 %). It counts as functional.
Assay [5] has as its system SUD4. Kind of assay: Induction of apoptosis in human SUDHL4 cells assessed as viable cells at 4 uM after 6 days by AnnexinV/propidium iodide staining based flow cytometry analysis (reference value: 92.7 %). Format: functional. The note with it: SU-DHL-4, 144 h, read-out: Activity.
Assay [6] concerns SUD4. Kind of assay: Induction of apoptosis in human SUDHL4 cells assessed as viable cells at 1 uM after 6 days by AnnexinV/propidium iodide staining based flow cytometry analysis (reference value: 92.7 %). Format: functional. The note with it: SU-DHL-4, 144 h, read-out: Activity. In general terms: In flow cytometry, cells or beads pass a laser one at a time.
Assay [7] concerns SUD4. Kind of assay: Induction of apoptosis in human SUDHL4 cells assessed as viable cells at 2 uM after 6 days by AnnexinV/propidium iodide staining based flow cytometry analysis (reference value: 92.7 %). Format: functional. As to conditions: SU-DHL-4, 144 h, read-out: Activity.
Assay [8] deals with T1, Histone-lysine N-methyltransferase EZH2. As to the kind of experiment: Inhibition of EZH2 in human SUDHL4 cells assessed as reduction in H3K27 methylation measured after 6 days by western blot analysis. Format: cell-based. As to conditions: SUD4. For orientation: In western blotting, separated proteins are transferred to a membrane and probed.
Target sequence in this assay (Q15910 whole entry, looked up): as the sequence (Q15910 whole entry) above
For assay [9], the system named is SUD4. As to the kind of experiment: Induction of apoptosis in human SUDHL4 cells assessed as early apoptotic cells at 2 uM after 6 days by AnnexinV/propidium iodide staining based flow cytometry analysis (reference value: 0.061 %). Format: functional.
Assay [10] deals with SUD4. Kind of assay: Induction of apoptosis in human SUDHL4 cells assessed as necrotic cells at 2 uM after 6 days by AnnexinV/propidium iodide staining based flow cytometry analysis (reference value: 0.737 %). It counts as functional.
The subject of assay [11] is SUD4. As to the kind of experiment: Induction of apoptosis in human SUDHL4 cells assessed as late apoptotic cells at 1 uM after 6 days by AnnexinV/propidium iodide staining based flow cytometry analysis (reference value: 2.01 %). It counts as functional.
In assay [12] the test system is SUD4. As to the kind of experiment: Induction of apoptosis in human SUDHL4 cells assessed as necrotic cells at 1 uM after 6 days by AnnexinV/propidium iodide staining based flow cytometry analysis (reference value: 0.737 %). It counts as functional.
Assay [13] relates to SUD4. Kind of assay: Induction of apoptosis in human SUDHL4 cells assessed as early apoptotic cells at 1 uM after 6 days by AnnexinV/propidium iodide staining based flow cytometry analysis (reference value: 0.061 %). Format: functional.
The test system of assay [14] is SUD4. As to the kind of experiment: Induction of apoptosis in human SUDHL4 cells assessed as late apoptotic cells at 2 uM after 6 days by AnnexinV/propidium iodide staining based flow cytometry analysis (reference value: 2.01 %). Format: functional.
The subject of assay [15] is SUD4. As to the kind of experiment: Induction of apoptosis in human SUDHL4 cells assessed as late apoptotic cells at 4 uM after 6 days by AnnexinV/propidium iodide staining based flow cytometry analysis (reference value: 2.01 %). Format: functional.
Assay [16] has as its system SUD4. Kind of assay: Induction of apoptosis in human SUDHL4 cells assessed as necrotic cells at 4 uM after 6 days by AnnexinV/propidium iodide staining based flow cytometry analysis (reference value: 0.737 %). It counts as functional.

Regarding `CCN(c1cc(/C=C/c2ccc(CN3CCC4(CC3)OCCO4)cc2)cc(C(=O)NCc2c(C)c3c([nH]c2=O)CCCC3)c1C)C1CCOCC1`, the concentration for half-maximal inhibition (IC50) (commonly the point on the concentration scale where inhibition reaches its midpoint) in assay [1] was determined as 0.189 µM; in assay [2], 17.5 µM; in the assay on SUD4 [3] it was 21.6 µM; in the assay with MV4-11, 3.87 µM.
As to `CCN(c1cc(/C=C/c2ccc(CN3C[C@@H]4C[C@H]3CO4)c(F)c2)cc(C(=O)NCc2c(C)c3c([nH]c2=O)CCCC3)c1C)C1CCOCC1`, the concentration for half-maximal inhibition (IC50) in assay [2] turned out to be 4.58 µM; in the assay with SUD4 [3] it was 10.5 µM; in the assay on MV4-11, 24.3 µM.
On to `CCN(c1cc(/C=C/c2ccc3c(c2)NC(=O)CO3)cc(C(=O)NCc2c3c(c(C)[nH]c2=O)CCCC3)c1C)C1CCOCC1`, for which the results for the concentration for half-maximal inhibition (IC50) (in assay [2]; with SUD4 [3]; in the assay with MV4-11) were more than 30 µM, 30 µM and 4.56 µM, respectively.
With `CCN(c1cc(/C=C/c2cccc(CN(C)C)c2)cc(C(=O)NCc2c3c(c(C)[nH]c2=O)CCCC3)c1C)C1CCOCC1`, the Activity with SUD4 [4] is 0.369%; in the assay with SUD4 [9], 1.28%; with SUD4 [10] it was 4.14%; with SUD4 [11], 36.2%; in the assay with SUD4 [12], 1.34%; with SUD4 [13], 0.112%. In addition, the Activity in the assay with SUD4 [14] is listed as 69.1%; with SUD4 [15], 92.9%; in the assay with SUD4 [16], 0.824%. In addition, the 50% inhibitory concentration (IC50) in assay [2] came out at 1.61 µM; in the assay on SUD4 [3], 2.34 µM; in the assay with MV4-11, 2.8 µM. For the same compound, the viability at 4 µM with SUD4 [5] came to 5.91%. The viability at 1 µM in the assay with SUD4 [6] amounted to 62.3%. Moreover, the viability at 2 µM in the assay on SUD4 [7] came to 25.5%. Besides, the inhibition entry in [8] is “Dose-dependent effect”.
`CCN(c1cc(/C=C/c2ccc(CN3CCOCC3)cc2)cc(C(=O)NCc2c3c(c(C)[nH]c2=O)CCCC3)c1C)C1CCOCC1`: the figures for the IC50 (in assay [2]; with SUD4 [3]; with MV4-11) were more than 30 µM, more than 30 µM and 6.41 µM, respectively.
With `CCN(c1cc(/C=C/c2cccc(CN3CCOCC3)c2)cc(C(=O)NCc2c(C)c3c([nH]c2=O)CCCC3)c1C)C1CCOCC1`, the IC50 was more than 30 µM in [2], more than 30 µM with SUD4 [3] and 9.23 µM with MV4-11.
As to `CCN(c1cc(/C=C/c2ccc(N3CCOCC3)nc2)cc(C(=O)NCc2c3c(c(C)[nH]c2=O)CCCC3)c1C)C1CCOCC1`, the concentration for half-maximal inhibition (IC50) in assay [2] was 12.6 µM; in the assay with SUD4 [3], 21.7 µM; with MV4-11, more than 30 µM.
On the same counts, the results for `CCN(c1cc(/C=C/c2ccc(CN3C[C@@H](C)O[C@@H](C)C3)c(F)c2)cc(C(=O)NCc2c(C)c3c([nH]c2=O)CCCC3)c1C)C1CCOCC1` are more than 30 µM, 20.4 µM and 12 µM.
Turning to `CCN(c1cc(/C=C/c2ccc(CN3CCOCC3)cc2)cc(C(=O)NCc2c(C)c3c([nH]c2=O)CCCC3)c1C)C1CCOCC1`, the IC50 is more than 30 µM in assay [2], 25.7 µM with SUD4 [3] and more than 30 µM in the assay with MV4-11.
For `CCN(c1cc(/C=C/c2ccc(CN3CCN(C)CC3)cc2)cc(C(=O)NCc2c3c(c(C)[nH]c2=O)CCCC3)c1C)C1CCOCC1`, the results for the concentration for half-maximal inhibition (IC50) (in assay [2]; with SUD4 [3]; with MV4-11) were 2.58 µM, 5.96 µM and more than 30 µM, respectively.
On to `CCN(c1cc(/C=C/c2ccc3c(c2)NC(=O)CO3)cc(C(=O)NCc2c(C)c3c([nH]c2=O)CCCC3)c1C)C1CCOCC1`, for which the values for the IC50 (in [2]; with SUD4 [3]; in the assay with MV4-11) were more than 30 µM, 25.7 µM and 5.69 µM, respectively.
The like results for `CCN(c1cc(/C=C/c2ccc(CN3C[C@H]4C[C@@H]3CO4)c(F)c2)cc(C(=O)NCc2c(C)c3c([nH]c2=O)CCCC3)c1C)C1CCOCC1` were, in that order, 6.18 µM, more than 30 µM and more than 30 µM.
Turning to `CCN(c1cc(/C=C/c2ccc(CN3CCC4(CC3)OCCO4)cc2)cc(C(=O)NCc2c3c(c(C)[nH]c2=O)CCCC3)c1C)C1CCOCC1`, the half-inhibitory concentration (IC50) was 0.055 µM in [1], 27.7 µM in assay [2], more than 30 µM in the assay with SUD4 [3] and 3.21 µM in the assay on MV4-11.
Regarding `CCN(c1cc(/C=C/c2ccc(CN3C[C@@H](C)O[C@@H](C)C3)cc2)cc(C(=O)NCc2c3c(c(C)[nH]c2=O)CCCC3)c1C)C1CCOCC1`, the IC50 (in [2]; in the assay with SUD4 [3]; in the assay on MV4-11) was more than 30 µM each time.
As for `CCN(c1cc(/C=C/c2cccc(CN3CCOCC3)c2)cc(C(=O)NCc2c3c(c(C)[nH]c2=O)CCCC3)c1C)C1CCOCC1`, the 50% inhibitory concentration (IC50) in assay [2] was more than 30 µM; in the assay with SUD4 [3] it was more than 30 µM; in the assay on MV4-11 it was 4.44 µM.
Take `CCN(c1cc(/C=C/c2cccc(CN(C)C)c2)cc(C(=O)NCc2c(C)c3c([nH]c2=O)CCCC3)c1C)C1CCOCC1`: the half-inhibitory concentration (IC50) in assay [2] was 20.9 µM; in the assay on SUD4 [3], 15.7 µM; in the assay with MV4-11 it was 3.98 µM.
On the same counts, the results for `CCN(c1cc(/C=C/c2ccc(CN3C[C@@H]4C[C@H]3CO4)c(F)c2)cc(C(=O)NCc2c3c(c(C)[nH]c2=O)CCCC3)c1C)C1CCOCC1` are 9.27 µM, 15.4 µM and 21.1 µM.
On the same counts, the results for `CCN(c1cc(-c2ccc(CN3CCN(C)CC3)cc2)cc(C(=O)NCc2c3c(c(C)[nH]c2=O)CCCC3)c1C)C1CCOCC1` are 1.64 µM, 1.78 µM and more than 30 µM.
Consider `CCN(c1cc(/C=C/c2ccc(/C=C/C(=O)OC)cc2)cc(C(=O)NCc2c3c(c(C)[nH]c2=O)CCCC3)c1C)C1CCOCC1`, for which the IC50 in assay [2] was 21.2 µM.
In assay [2], `CCN(c1cc(/C=C/c2ccc(S(=O)(=O)N3CCOCC3)cc2)cc(C(=O)NCc2c3c(c(C)[nH]c2=O)CCCC3)c1C)C1CCOCC1` showed an IC50 of more than 30 µM.
`CCN(c1cc(/C=C/c2ccc(CN3C[C@@H](C)O[C@@H](C)C3)cc2)cc(C(=O)NCc2c(C)c3c([nH]c2=O)CCCC3)c1C)C1CCOCC1`: the IC50 was more than 30 µM in assay [2], more than 30 µM with SUD4 [3] and 8.04 µM with MV4-11.
Take `CCN(c1cc(/C=C/c2ccc(CN3C[C@@H](C)O[C@@H](C)C3)c(F)c2)cc(C(=O)NCc2c3c(c(C)[nH]c2=O)CCCC3)c1C)C1CCOCC1`: the IC50 in assay [2] is 27.7 µM; in the assay on SUD4 [3] it was more than 30 µM; with MV4-11, 4.36 µM.
On the same counts, the results for `CCN(c1cc(/C=C/c2ccc(N3CCOCC3)nc2)cc(C(=O)NCc2c(C)c3c([nH]c2=O)CCCC3)c1C)C1CCOCC1` are 25.8 µM, more than 30 µM and more than 30 µM.
Turning to `CCN(c1cc(/C=C/c2ccc(CN3CCN(C)CC3)cc2)cc(C(=O)NCc2c(C)c3c([nH]c2=O)CCCC3)c1C)C1CCOCC1`, the figures for the IC50 (in assay [2]; in the assay on SUD4 [3]; in the assay on MV4-11) were 3.11 µM, 4.31 µM and 22.6 µM, respectively.
On the same counts, the results for `CCN(c1cc(-c2ccc(CN3CCOCC3)cc2)cc(C(=O)NCc2c(C)cc(C)[nH]c2=O)c1C)C1CCOCC1` [TAZEMETOSTAT] are 17.8 µM, 14.3 µM and 22.4 µM.
Regarding `CCN(c1cc(/C=C/c2ccc(S(=O)(=O)N3CCOCC3)cc2)cc(C(=O)NCc2c(C)c3c([nH]c2=O)CCCC3)c1C)C1CCOCC1`, the half-inhibitory concentration (IC50) in assay [2] was more than 30 µM.
`CCN(c1cc(/C=C/c2ccc(CN3C[C@H]4C[C@@H]3CO4)c(F)c2)cc(C(=O)NCc2c3c(c(C)[nH]c2=O)CCCC3)c1C)C1CCOCC1`: the figures for the half-inhibitory concentration (IC50) (in assay [2]; in the assay on SUD4 [3]; with MV4-11) were 5.85 µM, more than 30 µM and more than 30 µM, respectively.
